# Measurements: patent US20250144067A1, “PERSONALIZED STARVATION THERAPY FOR CANCER” (Faeth Therapeutics, Inc., priority 2021, published 2025)
# Counter-ions that a name gives are not always drawn. Like-named read-outs stand apart in the source and are kept apart here.
# Assays:
# [1] = test system: NCI-H292 lung cancer cells; assay: FDA drug screening, complete media vs cholesterol-free media without statin (TABLE 1); assay type: cell-based, human
# [2] = test system: NCI-H292 lung cancer cells; assay: FDA drug screening, complete media vs cholesterol-free media with simvastatin (TABLE 2); assay type: cell-based, human
# [3] = Complete minus Cholesterol-free, >0 enhanced anti-cancer activity, about 0 neutral, <0 antagonist
# [4] = NCI-H292 cells, cholesterol-free media without statin
# [5] = NCI-H292 cells, cholesterol-free media with simvastatin 0.04 μM, FDA drug library screen (TABLE 2)
# [6] = complete media minus cholesterol-free media + simvastatin (0.04 μM), >0 enhanced anti-cancer activity, about 0 neutral, <0 antagonist
# [7] = NCI-H292 cells, cholesterol-free media without statin, FDA drug library screen
# [8] = NCI-H292 cells, complete media, FDA drug library screen
# [9] = complete vs cholesterol-free media, >0 enhanced anti-cancer activity, about 0 neutral, <0 antagonist
# [10] = complete media vs cholesterol-free media + simvastatin (0.04 μM), >0 enhanced anti-cancer activity, about 0 neutral, <0 antagonist
# [11] = NCI-H292 cells, FDA drug library screen, cholesterol-free media with simvastatin 0.04 μM
# [12] = NCI-H292 cells, FDA drug library screen, complete media
# [13] = complete vs cholesterol-free media, greater than 0 enhanced anti-cancer activity, about 0 neutral, below 0 antagonists
# [14] = complete media minus cholesterol-free media + simvastatin, >0 enhanced anti-cancer activity, about 0 neutral, <0 antagonist
# [15] = NCI-H292 cells in cholesterol-free media without statin
# [16] = NCI-H292 cells in complete media
# [17] = NCI-H292 cells, complete media, FDA drug library screen (TABLE 2)
# [18] = NCI-H292 cells, drug in cholesterol-free media with simvastatin 0.04 μM
# [19] = NCI-H292 cells, drug in complete media
structure (smiles),measurement,setting,value
C[C@]12C=CC(=O)C=C1CC[C@H]1[C@@H]3C[C@@H](O)[C@](O)(C(=O)CO)[C@@]3(C)C[C@H](O)[C@@]12F [Triamcinolone],Difference,[1]; [3],−0.27
same,Cholesterol-free,[1]; [4],0.8896
same,Complete,"[1]; NCI-H292 cells, complete media",0.6155
same,Cholesterol-free media + simvastatin (0.04 μM),[2]; [5],1.201
same,Difference,[2]; [6],−0.04
Nc1nc(N)c2nc(-c3ccccc3)c(N)nc2n1 [Triamterene],Cholesterol-free,[1]; [7],0.6087
same,Complete,[1]; [8],1.304
same,Difference,[1]; [9],0.69
same,Cholesterol-free media + simvastatin (0.04 μM),"[2]; NCI-H292 cells, FDA library drug in cholesterol-free media with simvastatin 0.04 μM",1.582
same,Complete Media,"[2]; NCI-H292 cells, FDA library drug in complete media",1.301
same,Difference,[2]; [10],−0.28
CCCCCCCC(=O)OCC(COC(=O)CCCCCCC)OC(=O)CCCCCCC [Tricaprilin],Difference,[1]; [3],0.03
same,Cholesterol-free,[1]; [7],0.9476
same,Complete,[1]; [8],0.9746
same,Cholesterol-free media + simvastatin (0.04 μM),[2]; [11],1.072
same,Complete Media,[2]; [12],0.9486
same,Difference,[2]; [10],−0.12
NS(=O)(=O)c1cc2c(cc1Cl)NC(C(Cl)Cl)NS2(=O)=O (stereo not shown) [Trichlormethiazide],Cholesterol-free,[1]; [4],1.351
same,Complete,"[1]; NCI-H292 cells, complete media",0.9482
same,Difference,[1]; [13],−0.40
same,Cholesterol-free media + simvastatin (0.04 μM),"[2]; NCI-H292 cells, cholesterol-free media with simvastatin 0.04 μM, cell growth value in FDA drug screen",1.02
same,Complete Media,"[2]; NCI-H292 cells, complete media, cell growth value in FDA drug screen",1.045
same,Difference,[2]; [14],0.02
CSc1nc2cc(Cl)c(Oc3cccc(Cl)c3Cl)cc2[nH]1 [Triclabendazole],Difference,"[1]; Complete minus Cholesterol-free, greater than 0 enhanced anti-cancer activity, about 0 neutral, below 0 antagonists",−0.64
same,Cholesterol-free,[1]; [15],1.673
same,Complete,[1]; [16],1.028
same,Complete Media,[2]; [12],1.193
same,Difference,[2]; [14],0.25
O=C(Nc1ccc(Cl)cc1)Nc1ccc(Cl)c(Cl)c1 [Triclocarban],Difference,[1]; [3],−0.05
same,Cholesterol-free,[1]; [7],0.8072
same,Complete,[1]; [8],0.7602
same,Cholesterol-free media + simvastatin (0.04 μM),[2]; [5],1.029
same,Complete Media,[2]; [17],0.9601
same,Difference,[2]; [6],−0.07
Oc1cc(Cl)ccc1Oc1ccc(Cl)cc1Cl [Triclosan],Difference,"[1]; Complete minus Cholesterol-free, […]",−0.91
same,Cholesterol-free,[1]; [15],1.986
same,Complete,[1]; [16],1.081
same,Cholesterol-free media + simvastatin (0.04 μM),"[2]; NCI-H292 cells, cholesterol-free media with simvastatin 0.04 μM, […]",1.015
same,Complete Media,"[2]; NCI-H292 cells, complete media, […]",1.093
same,Difference,"[2]; complete media minus cholesterol-free media + simvastatin, […]",0.08
CC(C)(C)c1cc(-c2cc(-c3ccc(C(=O)O)cc3)ccc2OCCO)ccc1N1CCCC1 [Trifarotene],Cholesterol-free,[1]; [4],1.099
same,Complete,"[1]; NCI-H292 cells, complete media",0.7867
same,Difference,[1]; [13],−0.31
same,Cholesterol-free media + simvastatin (0.04 μM),[2]; [11],0.9343
same,Complete Media,[2]; [12],0.8355
same,Difference,[2]; [10],−0.10
CN(C)CCCN1c2ccccc2Sc2ccc(C(F)(F)F)cc21 [Triflupromazine (hydrochloride)],Cholesterol-free,[1],0.9938
same,Complete,[1],0.8066
same,Difference,[1],−0.19
same,Cholesterol-free media + simvastatin (0.04 μM),[2],0.02542
same,Complete Media,[2],1.475
same,Difference,[2],1.45
O=c1[nH]c(=O)n([C@H]2C[C@H](O)[C@@H](CO)O2)cc1C(F)(F)F [Trifluridine],Difference,"[1]; Complete minus Cholesterol-free, greater than 0 enhanced anti-cancer activity, about 0 neutral, below 0 antagonist",−0.14
same,Cholesterol-free,"[1]; NCI-H292 cells, FDA drug library screen, cholesterol-free media without statin",0.2875
same,Complete,[1]; [12],0.145
same,Cholesterol-free media + simvastatin (0.04 μM),[2]; [5],0.1119
same,Complete Media,[2]; [17],0.1066
same,Difference,[2]; [6],−0.01
CC(=O)Oc1cc(C(F)(F)F)ccc1C(=O)O [Triflusal],Cholesterol-free,[1]; [7],1.019
same,Complete,[1]; [8],1.117
same,Difference,[1]; [9],0.10
same,Cholesterol-free media + simvastatin (0.04 μM),[2]; [11],1.154
same,Complete Media,[2]; [12],1.083
same,Difference,[2]; [10],−0.07
OC(CCN1CCCCC1)(c1ccccc1)C1CCCCC1 (stereo not shown) [Trihexyphenidyl (hydrochloride)],Cholesterol-free,[1]; [4],1.407
same,Complete,"[1]; NCI-H292 cells, complete media",0.9676
same,Difference,[1]; [13],−0.44
same,Cholesterol-free media + simvastatin (0.04 μM),[2]; [18],0.9099
same,Complete Media,[2]; [19],0.6915
same,Difference,[2]; [10],−0.22
C[C@]12CC[C@H]3[C@@H](CC[C@@]45O[C@@H]4C(O)=C(C#N)C[C@]35C)[C@@H]1CC[C@@H]2O [Trilostane],Difference,[1]; [3],−0.23
same,Cholesterol-free,[1]; [4],1.238
same,Complete,"[1]; NCI-H292 cells, complete media",1.003
same,Cholesterol-free media + simvastatin (0.04 μM),[2]; [18],1.758
same,Complete Media,[2]; [19],1.505
same,Difference,[2]; [10],−0.25
